How the values were obtained:
ischemic hindlimbs [1] = assay: Live microscopy / quantitative confocal analysis of arteriolar growth in ischemic hindlimbs; assay type: in vivo, mice; conditions: ischemic legs
Excerpt: The outcomes of local delivery of CPGI2, a prostacyclin analogue, to ischemic hindlimbs were investigated. More specifically, arteriolar growth in ischemic hindlimbs was monitored in conjunction with CPGI2 treatment. Dynamic changes in the microvascular morphology of the limb region distal to the ligation where CPGI2 was applied were microscopically examined in live mice. At 7 days after treatment, structural remodeling at the arteriolar level in the CPGI2 group was more distinct than in the saline group, as shown in FIG. 3. […] More intra-arteriolar connections (solid line arrows, as shown in FIG. 3) and corkscrew extensions of arterioles (dashed line arrows, as shown in FIG. 3) developed in CPGI2-treated versus saline-treated groups. Arteriolar networks were identified by their branching out from a large feeder femoral artery or from a saphenous branch of descending genicular artery.

ischemic hindlimbs [2] = assay: Quantitative micro-CT of microvascular network in ischemic hindlimbs; assay type: in vivo, mice
Excerpt: The outcomes of local delivery of CPGI2, a prostacyclin analogue, to ischemic hindlimbs were investigated. More specifically, remodeling of microvascular network in ischemic hindlimbs was monitored in conjunction with CPGI2 treatment. High-definition, volumetric, quantitative micro-CT was used to assess the overall microvascular geometry of ischemic and contralateral non-ischemic legs 14 days after femoral occlusion and constant local administration of CPGI2 or saline. […] Similar global morphometric analyses were used to evaluate contralateral non-ischemic legs. […] To further verify the pro-arteriogenic effect of CPGI2, a quantitative histogram was generated by using micro-CT to illustrate frequency and distribution of blood vessel size in CPGI2-treated legs in comparison to saline-treated or contralateral non-ischemic legs. […] Referring to FIG. 4B, the red dashed circles show more vasculature in the thigh muscle where CPGI2 was administered as compared to the similar area where saline was administered. […] CPGI2 treatment positively affects remodeling of the microvascular network in ischemic hindlimbs. Quantitative micro-CT analyses indicate CPGI2 augments vascular growth.

ischemic hindlimbs [3] = assay: Laser Doppler perfusion of ischemic hindlimbs with local CPGI2 delivery by osmotic pump; assay type: in vivo, mice; conditions: local delivery to ischemic thigh muscle, n=5/group
Description: Serial measurements of perfusion were performed with the use of a laser Doppler image device (Perimed AB, […]) at 24 hours and 3, 5, 7, and 14 days after cell injections in the cell-treated groups and at the same time points in iloprost-treated mice. Perfusion was expressed as the perfusion ratio in the ischemic compared to the contralateral, non-manipulated leg. The outcomes of local delivery of CPGI2, a prostacyclin analogue, to ischemic hindlimbs were investigated. More specifically, blood perfusion in ischemic hindlimbs was monitored in conjunction with CPGI2 treatment. An osmotic pump was implanted and a catheter was used to deliver the prostacyclin analogue CPGI2 or saline (vehicle) to the surface of the ischemic anterior thigh muscle for up to 14 days.

[4] = test system: hMSCs in ischemic hindlimbs of NOD/SCID mice; assay: In vivo bioluminescence imaging of hMSC retention with daily SEE drug treatment; conditions: 3 days, hMSCs preconditioned 100 nM 4 days
Description: The ability of stem cells to engraft in ischemic tissues in the presence of SEE was investigated. More specifically, the ability of hMSCs to engraft in ischemic hindlimbs in the presence of different SEEs was investigated. The studies were conducted in as described in Example 5, unless otherwise specified. To investigate the signaling pathways involved in prostacyclin-induced cell retention after hindlimb ischemia, hMSCs were preconditioned with either prostacyclin receptor agonist Cicaprost (100 nM) or PPARβ/δ agonist GW501516 (100 nM) for 4 days in vitro. Cells were then injected into the gastrocnemius of ischemic hindlimbs of NOD/SCID mice. After cell injection, mice were either treated daily with Cicaprost (oral gavage, LD=0.3 mg/kg/day; HD=1 mg/kg/day) or GW501516 (intra peritoneal (IP), 5 mg/kg/day). LD=low dose and HD=high dose. In vivo BLI was performed on cell-drug treated mice.

[5] = in vivo; cited from earlier work

CCCCC[C@H](O)/C=C/[C@@H]1[C@H]2C/C(=C/CCCC(=O)O)C[C@H]2C[C@H]1O [CPGI2, Carbaprostacyclin]
structural remodeling at the arteriolar level versus saline group (ischemic hindlimbs [1]; 7 days after treatment): more distinct
number of microvessels ranging in size from 15-50 m in diameter (ischemic hindlimbs [1]; quantitative confocal analysis): 38.00±2.41 /high-power field [HPF]
distance between vessels (ischemic hindlimbs [2]; ischemic legs, 14 days): 6.60±0.52 mm
vascular volume (ischemic hindlimbs [2]; ischemic legs, 14 days after femoral occlusion, constant local administration): 41.28±2.22 mm^3
small vessels, vessel diameter bins 40-60 μm, relative to saline-treated ischemic legs (ischemic hindlimbs [2]; micro-CT histogram, ischemic legs): significant increase
morphologic variables of contralateral non-ischemic legs versus saline-treated (ischemic hindlimbs [2]; non-ischemic legs, 14 days): No significant differences
blood flow recovery (ischemic hindlimbs [3]; 7 days, perfusion ischemic vs contralateral leg): 58.80±5.74%
blood flow recovery (ischemic hindlimbs [3]; 14 days): 88.40±8.71%

CCC#CC[C@H](C)[C@H](O)C#C[C@@H]1[C@H]2C/C(=C/COCC(=O)O)C[C@H]2C[C@H]1O [Cicaprost]
bioluminescent intensity (hMSC retention) versus no drug treatment ([4]; oral gavage daily 0.3 or 1 mg/kg/day): markedly higher

Cc1cc(SCc2sc(-c3ccc(C(F)(F)F)cc3)nc2C)ccc1OCC(=O)O [GW501516]
bioluminescent intensity (hMSC retention) versus no drug treatment ([4]; intra peritoneal 5 mg/kg/day): markedly higher

CCCCC[C@H](O)/C=C/[C@@H]1[C@H]2C/C(=C/CCCC(=O)O)O[C@H]2C[C@H]1O [PGI2, prostacyclin]
circulating half-life [5]: 1 to 2 min

— patent US20170049822A1, “METHODS OF ENHANCING STEM CELL ENGRAFTMENT” (TEXAS HEART INSTITUTE, priority 2014, published 2017)
